Assay results as given in publication PMC3490914, “The Nonantibiotic Small Molecule Cyslabdan Enhances the Potency of β-Lactams against MRSA by Inhibiting Pentaglycine Interpeptide Bridge Synthesis” (PLoS ONE, 2012).

Key:
FemA (SAR1388) [1] = target: T1, FemA (SAR1388) (Staphylococcus aureus, UniProt P0A0A5); assay: in vitro glycyl transfer assay with purified FemA, monoglycyl lipid II and […]-glycine, TLC/phosphoimaging; supported by pull-down with biotinylcyslabdan; type: biochemical
T1 construct: recombinant, C-terminal hexahistidine tag

FemB = target: T2, FemB (Staphylococcus aureus, UniProt Q2FYR1); assay: pull-down of purified recombinant protein on biotinylcyslabdan-immobilized avidin beads, SDS-PAGE (some background binding to beads alone)
T2 construct: recombinant, C-terminal hexahistidine tag

FemA (SAR1388) [2] = target: T1, FemA (SAR1388); assay: pull-down of purified recombinant protein on biotinylcyslabdan-immobilized avidin beads, SDS-PAGE; also from MRSA lysate with LC-MS/MS; type: binding

T1 sequence (P0A0A5 whole entry): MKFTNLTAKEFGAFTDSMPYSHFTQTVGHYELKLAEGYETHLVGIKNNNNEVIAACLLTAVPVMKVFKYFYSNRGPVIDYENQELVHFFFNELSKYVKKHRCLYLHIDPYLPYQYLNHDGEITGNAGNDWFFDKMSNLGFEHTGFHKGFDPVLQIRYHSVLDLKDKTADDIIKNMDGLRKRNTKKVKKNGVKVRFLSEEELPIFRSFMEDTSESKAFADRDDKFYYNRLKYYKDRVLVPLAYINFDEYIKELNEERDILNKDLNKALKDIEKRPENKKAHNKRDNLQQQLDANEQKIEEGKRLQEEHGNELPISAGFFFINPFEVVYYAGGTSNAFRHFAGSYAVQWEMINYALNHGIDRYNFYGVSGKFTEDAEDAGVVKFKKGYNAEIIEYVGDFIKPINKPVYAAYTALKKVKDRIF
T2 sequence (Q2FYR1 whole entry): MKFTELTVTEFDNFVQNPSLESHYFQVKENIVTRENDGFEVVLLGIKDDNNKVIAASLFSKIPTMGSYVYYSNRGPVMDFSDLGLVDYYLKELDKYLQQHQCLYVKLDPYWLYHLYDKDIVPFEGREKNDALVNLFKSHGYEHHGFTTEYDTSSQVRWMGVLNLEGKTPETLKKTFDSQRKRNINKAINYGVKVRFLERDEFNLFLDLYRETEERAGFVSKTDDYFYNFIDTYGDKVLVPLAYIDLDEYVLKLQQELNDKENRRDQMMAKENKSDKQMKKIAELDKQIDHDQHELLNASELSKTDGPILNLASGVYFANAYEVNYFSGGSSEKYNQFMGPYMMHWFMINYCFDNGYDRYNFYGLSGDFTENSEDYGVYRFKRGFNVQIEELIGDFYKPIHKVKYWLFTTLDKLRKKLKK

SMILES	IC50 (FemA (SAR1388) [1]) [µM]	pull-down of purified recombinant protein on biotinylcyslabdan-immobilized avidi (FemB)	pull-down of purified recombinant protein on biotinylcyslabdan-immobilized avidi (FemA (SAR1388) [2])
C=C/C(C)=C/C[C@@H]1[C@@]2(C)CCCC(C)(C)[C@@H]2C[C@H](O)[C@]1(O)CSC[C@H](NC(C)=O)C(=O)O [cyslabdan]	530	–	–
C=C/C(C)=C/CC1C2(C)CCCC(C)(C)C2CC(O)C1(O)CSC[C@H](NC(C)=O)C(=O)NCCOCCOCCNC(=O)CCCCC1SC[C@@H]2NC(=O)N[C@H]12 (stereo partly drawn) [biotinylcyslabdan]	–	FemB was bound to only avidin beads, while the binding amount of FemB increased in the presence of biotinylcyslabdan	Purified recombinant SAR1388 protein was then added to avidin beads onto which biotinylcyslabdan had been immobilized.
